Measurements: patent US20120046331A1, “Antifungal Agents and Uses Thereof” (priority 2010, published 2012)
≈ marks a conversion by molar mass, not a printed value. Where “and” joins values, the source holds several entries; their conditions need not be identical. Identical values can stand only once. Like-named read-outs stand apart in the source and are kept apart here. Marks after values point to notes of the source that are not given here.

Columns and labels:
T. tonsurans [1] = experiment: Checkerboard combination testing of compound 8 with antifungals, FIC (Example 1); type: cell-based, Trichophyton tonsurans; conditions: for Additivity # isolates / Additivity isolates (%): 0.5≦FIC≦1.0; for No Interaction # isolates: 1.0<FIC≦4.0; for Synergy # isolates / Synergy isolates (%): FIC<0.5
Method: (§1) This example describes the in vitro activity of combinations of compounds according to the present invention and antifungal agents against a collection of dermatophytic fungal pathogens. Antifungal susceptibility testing was adapted from the CLSI M38-A broth microdilution method for dermatophytes (NCCLS-M38-A2 2008). Combination testing was performed by checkerboard method (with compound 8 in combination with fluconazole, itraconazole or terbinafine). A total of 30 isolates of 5 different fungal species were tested in the combination test: 6 isolates each of Trichophyton tonsurans, Trichophyton rubrum, Epidermophyton floccosum, Trichophyton mentagrophytes and Microsporum canis. Clinical isolates were obtained by the Laboratory of Dr. M. Ghannoum at Case Western University.
(§2) Synergy was assessed using the fractional inhibitory concentration (FIC), an interaction coefficient, with the following definitions:
(§3) The fold reduction of the itraconazole minimum inhibitory concentration (MIC) was also evaluated.

T. tonsurans [2] = experiment: MIC testing, modified CLSI M38-A2 for dermatophytes (Example 2); type: cell-based
Method: (§4) MIC testing was performed according to the modification of the CLSI M38-A2 standard for dermatophytes developed at the Center (CLSI. Reference Method for Broth Dilution Antifungal Susceptibility Testing of Filamentous Fungi; Approved Standard-Second Edition. CLSI document M38-A2 [ISBN 1-56238-668-9]. CLSI, 940 West Valley Road, Suite 1400, Wayne, Pa. 19087-1898 USA, 2008; Ghannoum M A, et al. Intra- and Interlaboratory Study of a Method for Testing the Antifungal Susceptibilities of Dermatophytes. 2004 J Clin Microbiol 42:(7): 2977-2979). Compound 8 and fluconazole were tested in combination using a checkerboard microdilution method. The interaction between Compound 8 and fluconazole was determined by FIC Index, or Fractional Inhibitory Concentration Index, which assigns a numerical value to the interaction of the two antifungals.

T. mentagrophytes [3] = experiment: as above; type: cell-based
Method: as §4

[4] = test system: clinical isolates of Zygomycetes and molds; experiment: In vitro synergy with azoles; type: cell-based; conditions: majority of clinical isolates
M. canis [5] = experiment: Checkerboard combination testing of compound 8 with antifungals, FIC (Example 1); type: cell-based, Microsporum canis
Method: as §1
(§5) Synergy was assessed using the fractional inhibitory concentration (FIC), an interaction coefficient, with the following definitions: […]

M. canis [6] = experiment: as above; type: cell-based, Microsporum canis; conditions: Compound 8 in combination with itraconazole, N=5 isolates
T. tonsurans [7] = experiment: Checkerboard microdilution Compound 8 + fluconazole, FIC Index (Example 2); type: cell-based; conditions: Compound 8 in combination with fluconazole, one value per strain (MRL #)
Method: as §4

T. mentagrophytes [8] = experiment: as above; type: cell-based; conditions: Compound 8 in combination with fluconazole, one value per strain (MRL #)
Method: as §4

T. rubrum [9] = experiment: Checkerboard combination testing of compound 8 with antifungals, FIC (Example 1); type: cell-based, Trichophyton rubrum; conditions: n=6 isolates; for Additivity # isolates / Additivity isolates (%): 0.5≦FIC≦1.0; for No Interaction # isolates: 1.0<FIC≦4.0; for Synergy # isolates / Synergy isolates (%): FIC<0.5
Method: as §1, §5

E. floccosum [10] = experiment: as above; type: cell-based, Epidermophyton floccosum; conditions: for Additivity # isolates / Additivity isolates (%): 0.5≦FIC≦1.0
Method: as §1, §2, §3

[11] = test system: panel of clinical isolates of 5 common dermatophytic fungi; experiment: Checkerboard combination testing, whole panel (Example 1); type: cell-based
Method: as §1, §5

T. rubrum [12] = experiment: Checkerboard microdilution Compound 8 + fluconazole, FIC Index (Example 2); type: cell-based, Trichophyton rubrum; conditions: Compound 8 in combination with fluconazole, one value per strain (MRL #)
Method: This example describes the in vitro activity of combinations of compounds according to the present invention and antifungal agents against clinical isolates of Trichophyton rubrum. Twenty clinical isolates Trichophyton rubrum, including 9 strains with elevated terbinafine MICs, taken from the culture collection of the Center for Medical Mycology, were tested.
as §4

T. tonsurans [13] = experiment: Single agent MIC, broth microdilution adapted from CLSI M38-A (Example 1); type: cell-based; conditions: Trichophyton tonsurans, range over clinical isolates, N=8, read-out: Cpd 8 MIC
Text: (§6) A minimum inhibitory concentration (MICx) of a compound such as a HDAC inhibitor or an antifungal agent (or both) is the concentration that reduces growth of a fungus by X %, compared to the growth of the fungus in the absence of the compound.
as §1

M. canis [14] = experiment: as above; type: cell-based; conditions: Microsporum canis, range over clinical isolates, N=7, read-out: Cpd 8 MIC
Text: as §6, §1

T. mentagrophytes [15] = experiment: as above; type: cell-based; conditions: Trichophyton mentagrophytes, range over clinical isolates, N=10, read-out: Cpd 8 MIC
Text: as §6, §1

E. floccosum [16] = experiment: as above; type: cell-based; conditions: Epidermophyton floccosum, range over clinical isolates, N=9, read-out: Cpd 8 MIC
Text: as §6, §1

T. rubrum [17] = experiment: as above; type: cell-based; conditions: Trichophyton rubrum, range over clinical isolates, N=10, read-out: Cpd 8 MIC
Text: as §6, §1

T. rubrum [18] = experiment: MIC testing, modified CLSI M38-A2 for dermatophytes (Example 2); type: cell-based, Trichophyton rubrum; conditions: for MIC50: lowest concentration to inhibit 50% of the strains tested, n = 20
[19] = test system: broad panel of dermatophytic clinical isolates; experiment: Single agent MIC, whole panel (Example 1); type: cell-based; conditions: range over all species and clinical isolates tested
Text: as §6, §1

[20] = test system: T. rubrum, T. mentagrophytes and T. tonsurans strains; experiment: Checkerboard microdilution Compound 8 + fluconazole, all strains (Example 2); type: cell-based; conditions: Compound 8 in combination with fluconazole
Method: as §4

T. mentagrophytes [21] = experiment: Checkerboard combination testing of compound 8 with antifungals, FIC (Example 1); type: cell-based, Trichophyton mentagrophytes; conditions: n=6 isolates; for Additivity # isolates / Additivity isolates (%): 0.5≦FIC≦1.0; for No Interaction # isolates: 1.0<FIC≦4.0; for Synergy # isolates / Synergy isolates (%): FIC<0.5
Method: as §1, §5

[22] = Compound 8 in combination with fluconazole, n=6 isolates
[23] = Compound 8 in combination with itraconazole, N=5 isolates
[24] = one value per clinical isolate (Strain # 1-6)
[25] = Trichophyton tonsurans, n = 5 strains
[26] = Trichophyton mentagrophytes, n = 5 strains
[27] = Compound 8 in combination with fluconazole, 0.5≦FIC≦1.0, n=6 isolates
[28] = Compound 8 in combination with fluconazole, 1.0<FIC≦4.0, n=6 isolates
[29] = Compound 8 in combination with fluconazole, FIC<0.5, n=6 isolates
[30] = Compound 8 in combination with fluconazole
[31] = Compound 8 in combination with itraconazole
[32] = Compound 8 in combination with itraconazole, n=6 isolates
[33] = Compound 8 in combination with itraconazole, FIC<0.5, n=6 isolates

## O=C(Cc1ccc(CCCCc2ccccc2)cc1)NO [Compound 8]
T. tonsurans [1]; [22]
  Additivity # isolates: 1
  Additivity isolates (%): (17%)
  No Interaction # isolates: 0
  Synergy # isolates: 5
  Synergy isolates (%): (83%)
T. tonsurans [1]; [23]
  Additivity # isolates: 4
  Additivity isolates (%): (80%)*
  No Interaction # isolates: 0
  Synergy # isolates: 1
  Synergy isolates (%): (20%)*
T. tonsurans [1]; [24]
  Fold Reduction of Itraconazole MIC by Cpd 8: 2x and 4x
T. tonsurans [2]; Trichophyton tonsurans, drug alone, one value per strain (MRL # in c0), read-out: Individual MIC
  MIC: 0.12 µg/mL
T. tonsurans [2]; [25]
  MIC50: 0.06 µg/mL
  MIC90: 0.06 µg/mL
T. tonsurans [2]; all strains tested
  Antifungal activity as compared with fluconazole: more potent antifungal activity as compared with fluconazole
T. tonsurans [2]; n = 5 strains
  MIC Range: 0.06 to 0.12 µg/mL
T. mentagrophytes [3]; Trichophyton mentagrophytes, drug alone, one value per strain (MRL # in c0), read-out: Individual MIC
  MIC: 1 µg/mL
T. mentagrophytes [3]; [26]
  MIC50: 1 µg/mL
  MIC90: 1 µg/mL
T. mentagrophytes [3]; all strains tested
  Antifungal activity as compared with fluconazole: more potent antifungal activity as compared with fluconazole
T. mentagrophytes [3]; n = 5 strains
  MIC Range: 1.0 µg/mL
[4]
  In vitro interaction with azoles: synergy
M. canis [5]; [27]
  Additivity # isolates: 4
  Additivity isolates (%): (67%)
M. canis [5]; [28]
  No Interaction # isolates: 1
  No Interaction isolates (%): (17%)
M. canis [5]; [29]
  Synergy # isolates: 1
  Synergy isolates (%): (17%)
M. canis [5]; Compound 8 in combination with itraconazole, 1.0<FIC≦4.0, N=5 isolates
  No Interaction # isolates: 4
M. canis [6]; 0.5≦FIC≦1.0
  Additivity # isolates: 0*
M. canis [6]; 1.0<FIC≦4.0
  No Interaction isolates (%): (80%)*
M. canis [6]; FIC<0.5
  Synergy # isolates: 1
  Synergy isolates (%): (20%)*
T. tonsurans [7]; strain MRL 10152
  Interpretation from ODDS: Additive
T. tonsurans [7]; strain MRL 10327
  Interpretation from ODDS: No interaction
T. tonsurans [7]; strain MRL 10328
  Interpretation from ODDS: Synergistic
T. mentagrophytes [8]; strain MRL 11256
  Interpretation from ODDS: Synergistic
T. mentagrophytes [8]; strain MRL 12511
  Interpretation from ODDS: Additive
T. mentagrophytes [8]; strain MRL 12680
  Interpretation from ODDS: No interaction
T. rubrum [9]; [30]
  Additivity # isolates: 4
  Additivity isolates (%): (67%)
  No Interaction # isolates: 0
  Synergy # isolates: 2
  Synergy isolates (%): (33%)
T. rubrum [9]; [31]
  Additivity # isolates: 2
  Additivity isolates (%): (33%)
  No Interaction # isolates: 0
  Synergy # isolates: 4
  Synergy isolates (%): (67%)
E. floccosum [10]; [22]
  Additivity # isolates: 4
  Additivity isolates (%): (67%)
E. floccosum [10]; [28]
  No Interaction # isolates: 2
  No Interaction isolates (%): (33%)
E. floccosum [10]; [29]
  Synergy # isolates: 0
E. floccosum [10]; [32]
  Additivity # isolates: 2
  Additivity isolates (%): (33%)
E. floccosum [10]; Compound 8 in combination with itraconazole, 1.0<FIC≦4.0, n=6 isolates
  No Interaction # isolates: 0
E. floccosum [10]; [33]
  Synergy # isolates: 4
  Synergy isolates (%): (67%)
E. floccosum [10]; [24]
  Fold Reduction of Itraconazole MIC by Cpd 8: 8x and 4x and 7.5x
[11]; Compound 8 with fluconazole, 30 isolate combinations
  Synergy, % of the isolate combinations tested: 33%
[11]; Compound 8 with fluconazole, of 30 isolate combinations tested
  Synergy, number of isolates: 10
[11]; Compound 8 with itraconazole, 28 isolate combinations
  Synergy, % of the isolate combinations tested: 54%
[11]; Compound 8 with itraconazole, of 28 isolate combinations tested
  Synergy, number of isolates: 15
[11]; any of the Compound 8-azole combinations or clinical isolates
  Antagonism: Antagonism was not observed
T. rubrum [12]; strain MRL 476
  Interpretation from ODDS: No interaction
T. rubrum [12]; strain MRL 477
  Interpretation from ODDS: Additive
T. rubrum [12]; strain MRL 670
  Interpretation from ODDS: Synergistic
T. rubrum [12]; strain MRL 9482
  Interpretation from ODDS: Addivtive
T. tonsurans [13]
  MIC: 0.02 to 0.25 µg/mL
M. canis [14]
  MIC: 0.12 to 2 µg/mL
T. mentagrophytes [15]
  MIC: 0.12 to 2 µg/mL
E. floccosum [16]
  MIC: 0.5 to 1 µg/mL
T. rubrum [17]
  MIC: 0.06 to 0.25 µg/mL
T. rubrum [18]; Trichophyton rubrum, read-out: MIC50
  MIC50: 1 µg/mL (≈ 3.53 µM)
T. rubrum [18]; Trichophyton rubrum, n = 20 strains
  MIC90: 4 µg/mL (≈ 14.1 µM)
T. rubrum [18]
  MIC50: 1 µg/mL (≈ 3.53 µM)
T. rubrum [18]; n = 20 strains
  MIC Range: 0.5 to 4.0 µg/mL
T. rubrum [18]; nine strains with a terbinafine MIC≧4.0 μg/ml
  Compound 8 MIC compared with the corresponding terbinafine MIC: lower than the corresponding terbinafine MIC for eight of nine strains
[19]
  MIC: 0.02 to 2 µg/mL
[20]
  Antagonism: No antagonism was demonstrated
  Synergism, % of the strains: 23%
T. mentagrophytes [21]; [30]
  Additivity # isolates: 4
  Additivity isolates (%): (67%)
  No Interaction # isolates: 0
  Synergy # isolates: 2
  Synergy isolates (%): (33%)
T. mentagrophytes [21]; [31]
  Additivity # isolates: 1
  Additivity isolates (%): (17%)
  No Interaction # isolates: 0
  Synergy # isolates: 5
  Synergy isolates (%): (83%)
